# According to patent US8299048B2, “Hexahydrocyclopentyl[f]indazole sulfonamides and derivatives thereof as selective glucocorticoid receptor modulators” (Merck Sharp & Dohme Corp., priority 2008, dated 2012):
# Where two headings read alike, the source gives them in different places.
# Target: T1, human GR (Homo sapiens, UniProt P04150)
# T1 sequence (P04150 1-777): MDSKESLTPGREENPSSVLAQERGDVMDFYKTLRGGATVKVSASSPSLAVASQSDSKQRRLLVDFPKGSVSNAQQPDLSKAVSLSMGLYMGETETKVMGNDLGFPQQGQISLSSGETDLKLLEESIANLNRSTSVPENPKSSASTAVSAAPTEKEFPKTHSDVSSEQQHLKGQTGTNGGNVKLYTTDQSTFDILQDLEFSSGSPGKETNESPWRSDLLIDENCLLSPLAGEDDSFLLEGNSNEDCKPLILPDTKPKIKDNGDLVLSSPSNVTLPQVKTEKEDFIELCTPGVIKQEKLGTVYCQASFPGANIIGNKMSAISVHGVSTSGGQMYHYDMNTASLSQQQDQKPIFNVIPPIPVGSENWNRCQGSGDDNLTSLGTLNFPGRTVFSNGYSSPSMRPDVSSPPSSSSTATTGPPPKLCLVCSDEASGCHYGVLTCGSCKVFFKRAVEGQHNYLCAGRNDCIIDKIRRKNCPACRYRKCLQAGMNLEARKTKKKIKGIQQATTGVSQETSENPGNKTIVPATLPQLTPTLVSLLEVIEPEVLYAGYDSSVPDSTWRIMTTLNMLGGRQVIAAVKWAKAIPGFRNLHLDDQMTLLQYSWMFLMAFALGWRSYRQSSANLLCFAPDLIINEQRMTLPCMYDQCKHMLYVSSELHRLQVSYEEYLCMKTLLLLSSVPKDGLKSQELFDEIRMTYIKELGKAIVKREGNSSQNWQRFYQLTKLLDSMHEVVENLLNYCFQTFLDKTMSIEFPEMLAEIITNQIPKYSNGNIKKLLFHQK
# Experiment: Transrepression Assay (GITAR), TNFα-β-lactamase reporter in U937 cells
# Assay type: cell-based
# Parameters: U937 cells contain an endogenous glucocorticoid receptor (GR); endogenous in cells; host or cells: U937 cells stably transfected with the TNF-alpha promoter/beta-lactamase reporter
# Conditions: for GITAR > GRAMM % SEP: GITAR Emax minus GRAMMER Emax; for EC50: U937 cells, inflection point, read-out: Transrepression U937 Cells GITAR IP
# How it was run: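 U937 cells stably carrying a TNF-α promoter–β-lactamase reporter, with endogenous GR, are preincubated with compound 30–45 min at 37 °C, then stimulated with PMA (5 ng/ml final) and LPS (100 ng/ml final) overnight (~18 hr). β-Lactamase is read with CCF2-AM substrate; repression by 100 nM dexamethasone defines 100%.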
# [1] = U-937, U937 cells, maximum activity, read-out: Transrepression U937 Cells GITAR Emax
# [2] = U-937, activity repressed by 100 nM dexamethasone alone set as 100%, read-out: maximal activity in the transrepression (GITAR) assay
SMILES,GITAR > GRAMM % SEP [%],EC50 [nM],Emax [1] [%],Emax [2] [%]
"CN(C[C@H]1CCC2=Cc3c(cnn3-c3ccc(F)cc3)C[C@@]21C)S(=O)(=O)CC(F)(F)F [Example 177, 2,2,2-trifluoro-N-{[(4αR,5S)-1-(4-fluorophenyl)-4α-methyl-1,4,4α,5,6,7-hexahydrocyclopenta[f]indazol-5-yl]methyl}-N-methylethanesulfonamide]",12.9,177,80.2,> 5
"CCN(C[C@H]1CCC2=Cc3c(cnn3-c3ccc(F)cc3)C[C@@]21C)S(=O)(=O)c1c(C)noc1C [Example 178, N-ethyl-N-{[(4αR,5S)-1-(4-fluorophenyl)-4α-methyl-1,4,4α,5,6,7-hexahydrocyclopenta[f]indazol-5-yl]methyl}-3,5-dimethylisoxazole-4-sulfonamide]",19.5,276,74.5,> 5
"CCN(C[C@H]1CCC2=Cc3c(cnn3-c3ccc(F)cc3)C[C@@]21C)S(=O)(=O)CC(F)(F)F [Example 179, N-ethyl-2,2,2-trifluoro-N-{[(4αR,5S)-1-(4-fluorophenyl)-4α-methyl-1,4,4α,5,6,7-hexahydrocyclopenta[f]indazol-5-yl]methyl}ethanesulfonamide]",31.2,440,96.5,> 5
"COC(=O)c1ccccc1CS(=O)(=O)N(C[C@H]1CCC2=Cc3c(cnn3-c3ccc(F)cc3)C[C@@]21C)C[C@@H](C)O [Example 180, methyl 2-[({{[(4αR,5S)-1-(4-fluorophenyl)-4α-methyl-1,4,4α,5,6,7-hexahydrocyclopenta[f]indazol-5-yl]methyl}[(2R)-2-hydroxypropyl]amino}sulfonyl)methyl]benzoatee]",39.5,187,77.7,> 5
"COC(=O)c1ccccc1CS(=O)(=O)N(C[C@H]1CCC2=Cc3c(cnn3-c3ccc(F)cc3)C[C@@]21C)C[C@H](C)O [Example 181, methyl 2-[({{[(4αR,5S)-1-(4-fluorophenyl)-4α-methyl-1,4,4α,5,6,7-hexahydrocyclopenta[f]indazol-5-yl]methyl}[(2S)-2-hydroxypropyl]amino}sulfonyl)methyl]benzoate]",24.7,263,79.2,> 5
"C[C@@H](O)CN(C[C@H]1CCC2=Cc3c(cnn3-c3ccc(F)cc3)C[C@@]21C)S(=O)(=O)Cc1ccccc1C(=O)O [Example 182, 2-[({{[(4αR,5S)-1-(4-fluorophenyl)-4α-methyl-1,4,4α,5,6,7-hexahydrocyclopenta[f]indazol-5-yl]methyl}[(2R)-2-hydroxypropyl]amino}sulfonyl)methyl]benzoic acid]",8.2,1890,16.2,> 5
"C[C@H](O)CN(C[C@H]1CCC2=Cc3c(cnn3-c3ccc(F)cc3)C[C@@]21C)S(=O)(=O)Cc1ccccc1C(=O)O [Example 183, 2-[({{[(4αR,5S)-1-(4-fluorophenyl)-4α-methyl-1,4,4α,5,6,7-hexahydrocyclopenta[f]indazol-5-yl]methyl}[(2S)-2-hydroxypropyl]amino}sulfonyl)methyl]benzoic acid]",8.2,3310,23.2,> 5
"C[C@@H](O)CN(C[C@H]1CCC2=Cc3c(cnn3-c3ccc(F)cc3)C[C@@]21C)S(=O)(=O)Cc1ccccc1C(N)=O [Example 184, 2-[({{[(4αR,5S)-1-(4-fluorophenyl)-4α-methyl-1,4,4α,5,6,7-hexahydrocyclopenta[f]indazol-5-yl]methyl}[(2R)-2-hydroxypropyl]amino}sulfonyl)methyl]benzamide]",38.7,562,60.3,> 5
"C[C@H](O)CN(C[C@H]1CCC2=Cc3c(cnn3-c3ccc(F)cc3)C[C@@]21C)S(=O)(=O)Cc1ccccc1C(N)=O [Example 185, 2-[({{[(4αR,5S)-1-(4-fluorophenyl)-4α-methyl-1,4,4α,5,6,7-hexahydrocyclopenta[f]indazol-5-yl]methyl}[(2S)-2-hydroxypropyl]amino}sulfonyl)methyl]benzamide]",43.1,676,63,> 5
"COC(=O)c1ccccc1S(=O)(=O)N(C[C@H]1CCC2=Cc3c(cnn3-c3ccc(F)cc3)C[C@@]21C)C[C@@H](C)O [Example 186, methyl 2-({{[(4αR,5S)-1-(4-fluorophenyl)-4α-methyl-1,4,4α,5,6,7-hexahydrocyclopenta[f]indazol-5-yl]methyl}[(2R)-2-hydroxypropyl]amino}sulfonyl)benzoate]",27.7,697,63.5,> 5

# Next, values leading:
GITAR > GRAMM % SEP [%],EC50 [nM],Emax [1] [%],Emax [2] [%],SMILES
35.6,392,71.5,> 5,"COC(=O)c1ccccc1S(=O)(=O)N(C[C@H]1CCC2=Cc3c(cnn3-c3ccc(F)cc3)C[C@@]21C)C[C@H](C)O [Example 187, methyl 2-({{[(4αR,5S)-1-(4-fluorophenyl)-4α-methyl-1,4,4α,5,6,7-hexahydrocyclopenta[f]indazol-5-yl]methyl}[(2S)-2-hydroxypropyl]amino}sulfonyl)benzoate]"
30.1,190,60.5,> 5,"COC(=O)c1ccccc1CS(=O)(=O)N(CCc1ccccc1F)C[C@H]1CCC2=Cc3c(cnn3-c3ccc(F)cc3)C[C@@]21C [Example 188, methyl 2-{[([2-(2-fluorophenyl)ethyl]{[(4αR,5S)-1-(4-fluorophenyl)-4α-methyl-1,4,4α,5,6,7-hexahydrocyclopenta[f]indazol-5-yl]methyl}amino)sulfonyl]methyl}benzoate]"
15.7,189,81,> 5,"COC(=O)c1ccccc1S(=O)(=O)N(CCc1ccccc1F)C[C@H]1CCC2=Cc3c(cnn3-c3ccc(F)cc3)C[C@@]21C [Example 189, methyl 2-[([2-(2-fluorophenyl)ethyl]{[(4αR,5S)-1-(4-fluorophenyl)-4α-methyl-1,4,4α,5,6,7-hexahydrocyclopenta[f]indazol-5-yl]methyl}amino)sulfonyl]benzoate]"
12.4,388,77.4,> 5,"C[C@]12Cc3cnn(-c4ccc(F)cc4)c3C=C1CC[C@@H]2CN(CCc1ccccc1F)S(=O)(=O)Cc1ccccc1C(N)=O [Example 190, 2-{[([2-(2-fluorophenyl)ethyl]{[(4αR,5S)-1-(4-fluorophenyl)-4α-methyl-1,4,4α,5,6,7-hexahydrocyclopenta[f]indazol-5-yl]methyl}amino)sulfonyl]methyl}benzamide]"
10.1,441,37.2,> 5,"C[C@]12Cc3cnn(-c4ccc(F)cc4)c3C=C1CC[C@@H]2CN(CC1CCCO1)S(=O)(=O)c1ccc(C(N)=O)cc1 (stereo partly drawn) [Example 191, 4-{[{[(4αR,5S)-1-(4-fluorophenyl)-4α-methyl-1,4,4α,5,6,7-hexahydrocyclopenta[f]indazol-5-yl]methyl}(tetrahydrofuran-2-ylmethyl)amino]sulfonyl}benzamide]"
